Measurements reported in patent publication US20250025581A1, “Medical Imaging of Glycogen Synthase Kinase-3 with a PET Probe” (Mayo Foundation for Medical Education and Research, priority 2021, published 2025).
Structures can show the parent of a compound that is named as a salt.

Key:
[1] = PAMPA, pH 7.4
Text: The blood brain permeability was expressed as permeability coefficient, P (10-6 cm/s) and −log Pe.

[2] = serum stability by rad-TLC, human serum; assay type: in vitro ADME; details: 37° C., up to 120 min
Procedure: (§1) The stability of both the probes in mouse and human serums was also measured along with a control at 0 min, 30 min, 60 min, and 120 min using rad-TLC as discussed later below. It was observed that [^18F]F-CNBI was stable >92% up to 120 min.
(§2) Serum Stability Analysis: Stability analysis of [^18F]F-CNBI and [^18F]F-CNPIFE were assessed in human and mouse serums. To perform this stability assay, 100 μL of [^18F]F-CNBI (˜0.74 MBq) or 100 μL of [^18F]F-CNPIFE (˜3.70 MBq) was added to 100 μL of human or mouse serum in a microcentrifuge tube. The resultant mixture of radiotracer and serum was incubated at 37° C. for 120 min. To assess the stability of the probes, a small aliquot (˜0.5 μL) was taken out from the mixture in duplicate at 0 min, 30 min, 60 min and 120 min during incubation, and analyzed on a rad-TLC using 1:9 methanol: chloroform as a mobile phase using i-TLC to estimate the radio-stability of [^18F]F-CNBI or [^18F]F-CNPIFE at different time points post-incubation. For control, 100 μL of [^18F]F-CNBI (˜0.74 MBq) was taken in a microcentrifuge without dilution or 100 μL of [^18F]F-CNPIFE (˜3.70 MBq) was added to 100 μL deionized water in a microcentrifuge tube. Both the controls, were incubated at 25° C. for 120 min. At 0 min, 30 min, 60 min and 120 min during incubation, small aliquot (˜0.5 μL) was taken from the controls in duplicate and rad-TLC was performed as mentioned above. […]

[3] = serum stability by rad-TLC, mouse serum; assay type: in vitro ADME; details: 37° C., up to 120 min
Procedure: as §1, §2

[4] = in vivo PET imaging in mice (Example 1), brain uptake; details: mouse brain
Procedure: Initial in vivo study in mouse model: Initial in vivo PET imaging studies were conducted in mice at different time points. The uptake of the [^18F]CNPIFE (28) probe is expressed as a standard uptake value (SUV).
In vivo study in mouse model: In vivo PET imaging studies were conducted in mice at different time points to compare the SUV for [^18F]—CNBI (4) and [^18F]CNPIFE (28).

[5] = dynamic micro-PET imaging and biodistribution in normal FVB/NJ mice with and without self-blocking; assay type: in vivo, mouse; details: for effect of co-administration of the reference compound on brain uptake: self-blocking study
Procedure: To pursue this, [^18F]F-CNBI and [^18F]F-CNPIFE were evaluated in the normal FVB/NJ mouse model.
The uptake of [^18F]F-CNPIFE (SUV=0.48±0.09; n=5) in brain was 2.5-fold higher than [^18F]F-CNBI (SUV=0.19±0.06; n=6) as early as 5 min post-injection. This difference increased with time: 4.8-fold higher SUV for [^18F]F-CNPIFE (SUV=0.48±0.11; n=5) as compared to [^18F]F-CNBI (SUV=0.10±0.01; n=6) at 15 min which further increased to 9.5-fold difference at 30 min (see FIG. 21). […] The differences in uptakes of [^18F]F-CNPIFE and [^18F]F-CNBI in the brain and liver likely relate to the difference in their chemical structures (compounds 4 and 28). Greater accumulation of [^18F]F-CNPIFE in the brain relative to [^18F]F-CNBI was consistent with its higher BBB permeability value indicated by the PAMPA assay (see Table 1).
To further understand the characteristics of the uptake of these PET probes in the brain, self-blocking studies with corresponding non-radiolabeled reference compounds were performed. In general, co-administration of [^18F]F-CNBI and [^18F]F-CNPIFE with their corresponding reference compounds, [^19F]F-CNBI and [^19F]F-CNPIFE, respectively, were expected to decrease the uptake of radiotracers in the brain. […] However, a non-significant trend in increase in brain uptake of [^18F]F-CNPIFE can be noticed on coadministration of nonradioactive [^19F]F-CNPIFE with the PET probe [^18F]F-CNPIFE. […] We hypothesize that enhanced brain uptake with additional administration of nonradioactive form of the tracer could be attributed to the binding of [^19F]F-CNBI with normally expressed GSK-3α/β in extremities and allowing relatively greater levels of [^18F]F-CNBI to be taken up by the brain as a peripheral effect.
In vivo study: Biodistribution of [^18F]F-CNBI and [^18F]F-CNPIFE were assessed in brain and in liver of normal FVB/NJ mice (The Jackson Laboratory, Bar Harbor, ME) with and without co administration of unlabeled reference compounds [^19F]F-CNBI (200 μg and 300 μg) and [^19F]F-CNPIFE (25 μg) in separate groups of animals. Stock solutions of [^19F]F-CNPIFE (26 mM) and [^19F]F-CNBI (25 mM) were prepared in the dimethyl sulfoxide (DMSO). For blocking studies with [^19F]F-CNBI, 200 μg (530.5 nmol) or 300 μg (795.8 nmol) of [^19F]F-CNBI (nonradioactive reference compound) was added to the PET probe [^18F]F-CNBI self-containing ˜9.3 nmol [^19F]F-CNBI in the final formulation volume of ˜100 μL. For blocking with [^19F]F-CNPIFE, 25 μg (59 nmol) of [^19F]F-CNPIFE was added to the PET probe [^18F]F-CNPIFE self-containing to 0.8-1.0 nmol of [^19F]F-CNPIFE in the final formulation volume of ˜100 μL. The final formulation containing both PET probes and their nonradioactive reference compounds were prepared in 0.9% saline isotonic solution before tail vein injection. Immediately after the tail vein injection of the radiotracers, animals were subjected to a dynamic micro-PET imaging for 30 min using a small animal micro-PET/X-ray system (Sofie BioSystems Genesys4, Culver City, CA, USA). The PET images were visualized and analyzed using image analysis software, Amide's a Medical Image Data Examiner—AMIDE [Ref. 29]. PET images at 5 min, 10 min, 15 min, 20 min, 25 min, and 30 min post-injection were normalized to the standardized uptake value (SUV), where SUV=(Concentration of dose in tissue (μCi/g)/(Injected dose (μCi)/Weight of the animal (g)) and presented as coronal, transverse and sagittal sectional image.

GSK-3 = experiment: binding affinity comparison with previous compounds, isoform not stated; assay type: biochemical; details: relative to [18F]CNBI (4)
Procedure: The inhibitory effect of [^18F]—CNBI (4) and [^18F]—CNPI (25) (as synthesized as described above) and [^18F]CNPIFE (28) (as synthesized as shown in FIG. 10) on kinase activity was measured. […] Determination of IC50 was determined as follows. The phosphorylation of glycogen synthase substrate by human glycogen synthase kinase α (GSK-3α) or human glycogen synthase kinase β (GSK-3β) was performed using human GSK-3α/β Kinase Enzyme Assay System (Promega Corporation, Madison, WI) in the presence of GSK-3α/β probes (0-400 nM). The phosphorylation of glycogen synthase substrate was quantified using ADP-Glo™ Kinase assay system (Promega Corporation, Madison, WI). IC50 of GSK-3α/β probes was determined from resulting dose response curve and IC50 curve fitting tool of GraphPad Prism 10 (GraphPad Software, San Diego, CA). (See Stein et al., “Comparison of [^18F]F-CNBI and [^18F]F-CNPIFE as Positron Emission Tomography Probes for Noninvasive Imaging of Glycogen Synthase Kinase-3 in Normal Mice”, Eur. J. Org. Chem. 2022).
It can be seen that [^18F]CNPIFE (28) has better purity (about 99% purity), better binding affinity (6×), and better blood brain barrier permeability (6×) compared to previous compounds such as [^18F]CNBI (4). The standard uptake is very close to 1, and to the gold standard value for [N-Methyl-^11C]2-(4′-methylaminophenyl)-6-hydroxybenzothiazole also known as [^11C] […]

[6] = test system: various tau isoforms and other proteins involved in neurodegeneration; experiment: affinity towards tau isoforms and other proteins involved in neurodegeneration; assay type: binding
Procedure: The affinity of [^18F]CNPIFE (28) towards various tau isoforms and other proteins involved in neurodegeneration was measured.

[7] = FVB/NJ mice, 5 min post-injection
[8] = FVB/NJ mice, 15 min post-injection
[9] = FVB/NJ mice, 30 min post-injection, without coadministration of reference compound

Permeability coefficient, P (10^−6 cm/s) Average ± SD [1]	fold difference of brain uptake with blocking (coadministration of [19F]F-CNBI) ([5]; 30 min post-injection, 200-300 μg [19F]F-CNBI)	brain uptake (SUV) ([5]; 30 min post-injection, co-injected with 300 μg [19F]F-CNBI)	brain uptake (SUV) ([5]; 30 min post-injection, coadministration of 200 μg [19F]F-CNBI)	liver uptake (SUV) ([5]; co-injected with 200 μg [19F]F-CNBI)	liver uptake (SUV) ([5]; co-injected with 300 μg [19F]F-CNBI)	liver uptake (SUV) ([5]; same animals as brain 30 min, without coadministration of [19F]F-CNBI)	SMILES	stability in human serum [2] [%]	stability in mouse serum [3] [%]	uptake in the brain (SUV) [4] [SUV]	brain uptake (SUV) [5, 7] [SUV]	brain uptake (SUV) [5, 8] [SUV]	brain uptake (SUV) [5, 9] [SUV]	effect of co-administration of the reference compound on brain uptake [5]	better binding affinity compared to previous compounds such as [18F]CNBI (4) (GSK-3) [×]	binding with various tau isoforms and other proteins involved in neurodegeneration [6]	brain uptake, fold higher than [18F]F-CNBI ([5]; 5 min post-injection) [fold]	brain uptake, fold higher than [18F]F-CNBI ([5]; 15 min post-injection) [fold]	brain uptake, fold higher than [18F]F-CNBI ([5]; 30 min post-injection) [fold]	brain uptake (SUV) ([5]; 30 min post-injection, coadministration of 25 μg [19F]F-CNPIFE)
32±1 10^−6 cm/s							CC(C)NCC(O)COc1cccc2ccccc12 (stereo not drawn) [Propranolol HCl]													
	2.5-3.0 fold	0.24±0.01	0.20±0.01	4.93±0.52	3.89±0.60	10.15±2.87	O=C(Nc1cnccc1-c1ccc([18F])nc1)c1ccnc(NC(=O)C2CC2)c1 [[^18F]F-CNBI, 2-(cyclopropanecarboxamido)-N-(6-(fluoro-^18F)-[3,4′-bipyridin]-3′-yl)isonicotinamide]	> 92	> 92	0.4	0.19±0.06	0.10±0.01	0.08±0.005	significant increase						
							O=C(Nc1cnccc1-c1ccc(OCC[18F])cc1)c1ccnc(NC(=O)C2CC2)c1 [[^18F]F-CNPIFE]	> 83	> 83	0.9	0.48±0.09	0.48±0.11	0.76±0.16	no significant difference	6	no to minimum binding	2.5	4.8	9.5	0.88±0.14
